Read-outs that look alike come from different tables or passages of the source. Where only a bound is given, the exact number is not on record here.

For data set [1], the target named is hNAMPT protein (Homo sapiens (Human), UniProt P43490). Put plainly: NAMPT enzyme assay (TR-FRET/HTRF with BodiPY ligand). Format: binding. Conditions: for inhibition at 1 µM: read-out: Percent Inhibition; for IC50: NAMPT inhibition, IC50 range class. The text has this:
As discussed above, the invention provides compounds that are useful as inhibitors of the enzyme NAMPT. The NAMPT inhibition of a compound of the invention can be measured using a variety of methods known in the art. For example, the ability of a compound of the invention to inhibit NAMPT enzyme activity can be measured using a homogeneous time resolved fluorescence (HTRF) assay using hNAMPT protein and anti 6His-Tb in buffer treated with a compound of the invention (or control e.g., DMSO) and BodiPY ligand. The TR-FRET signal can be measured using a high throughput microplate reader (e.g., Pherastar). Excitation can be carried out at 320 nm. The percent inhibition value at a single concentration of compound of the invention can be calculated relative to a control treated sample. A concentration response curve can be generated for each compound of the invention and the curve fitted to generate an IC50 value. […] To measure the inhibition of NAMPT activity hNAMPT protein stock and anti 6His-Tb (Cisbio; Cat. No. […]TLB) is diluted to 3× final concentration with assay buffer (50 mM Tris-HCl (pH 7.5), 1 mM DTT, 100 mM NaCl, 10 mM MgCl2, 0.005% Tween 20). To this solution is added a test compound or vehicle control (DMSO) and BodiPY ligand (structure below). The plate is shaken for 1-2 min sealed and incubated for 1 h at rt in the dark. The TR-FRET signal is measured using BMG Pherastar (Lanthascreen protocol on BMG Pherastar). Excitation was carried out at 320 nm, and the ratio of emission of BodiPY (520 nm) to terbium (486 nm) was determined. Concentration response curves are generated by calculating the excitation increase in test compound-treated samples relative to DMSO-treated controls. For the assay method described above, test compound percent inhibition values at a single concentration are calculated relative to control (DMSO) treated samples. Compound concentration response curves are fitted to generate IC50 values from those curves. One skilled in the art will appreciate that these values generated either as percentage inhibition at a single concentration or IC50 values are subject to experimental variation.
Background: TR-FRET usually uses a lanthanide donor and a delayed reading to cut background.

The subject of data set [2] is PC3 cells. Put plainly: PC3 growth inhibition (Cell-titer glo, 72 hours). It is filed as cell-based. The following applies: for viability at 1.667 µM: Homo sapiens, PC-3, 72 h, read-out: Percent Viability, PC3 cells, compound concentration 1.667 μM, 72 hours. The procedure:
The invention also provides compounds that inhibit cell growth. The ability of a compound of the invention to inhibit the growth of cells can be measured using a variety of methods known in the art. For example, the ability of a compound of the invention to inhibit the growth of PC3 cells can be measured. PC3 cells can be plated and incubated overnight under CO2. For each measurement, a compound of the invention (or vehicle e.g., DMSO) can be diluted with AIM serum free medium and added to the cell plate. The cell plate can then be incubated for 72 h under CO2. Cell-titer glo solution can be added and the plates can be incubated protected from light and the amount of luminescences can be measured. Concentration response curves can be generated by calculating the luminescence increase in test compound treated samples relative to DMSO-treated controls. Percentage remaining viability values at a single concentration can be measured. Growth inhibition (GI50) or cell viability (LD50) values can be determined from thoses curves. In one embodiment, compounds of the invention have a percent viability in PC3 line @ 1.667 uM of <1%. In one embodiment, compounds of the invention have a percent viability in PC3 line @ 1.667 uM of <2%. In one embodiment, compounds of the invention have a percent viability in PC3 line @ 1.667 uM of <3%. In one embodiment, compounds of the invention have a percent viability in PC3 line @ 1.667 uM of <4%. In one embodiment, compounds of the invention have a percent viability in PC3 line @ 1.667 uM of <5%. In one embodiment, compounds of the invention have a percent viability in PC3 line @ 1.667 uM of <10%. In one embodiment, compounds of the invention have a percent viability in PC3 line @ 1.667 uM of <50%.
To measure PC3 growth inhibition, PC3 cells that were maintained in RPMI1640 growth medium (Life Technologies; Cat. No. 11875) at 37° C. under 5% CO2 are trypsinized and diluted at a density of 8×10^4 cells/ml, 25 ul per well of cells and plated in 384-well black tissue culture plate. The cells are incubated overnight at 37° C. under 5% CO2. For each measurement, a test compound or vehicle DMSO control is diluted with AIM serum free medium and added to the cell plate. The cell plate is incubated for 72 hours at 37° C. under 5% CO2. 25 μl Cell-titer glo solution (Promega; Cat. No. G8462) is added and the cell plates are incubated for 10 minutes protected from light. The luminescence is measured. Concentration response curves are generated by calculating the luminescence increase in test compound-treated samples relative to DMSO-treated controls. Percentage remaining viability values at a single concentration, growth inhibition (GI50) or cell viability (LD50) values are determined from those curves. One skilled in the art will appreciate that these values are subject to experimental variation.

Where [3] appears, read: NAMPT inhibition at compound concentration 1 μM.

Chain of hNAMPT protein (P43490 whole entry): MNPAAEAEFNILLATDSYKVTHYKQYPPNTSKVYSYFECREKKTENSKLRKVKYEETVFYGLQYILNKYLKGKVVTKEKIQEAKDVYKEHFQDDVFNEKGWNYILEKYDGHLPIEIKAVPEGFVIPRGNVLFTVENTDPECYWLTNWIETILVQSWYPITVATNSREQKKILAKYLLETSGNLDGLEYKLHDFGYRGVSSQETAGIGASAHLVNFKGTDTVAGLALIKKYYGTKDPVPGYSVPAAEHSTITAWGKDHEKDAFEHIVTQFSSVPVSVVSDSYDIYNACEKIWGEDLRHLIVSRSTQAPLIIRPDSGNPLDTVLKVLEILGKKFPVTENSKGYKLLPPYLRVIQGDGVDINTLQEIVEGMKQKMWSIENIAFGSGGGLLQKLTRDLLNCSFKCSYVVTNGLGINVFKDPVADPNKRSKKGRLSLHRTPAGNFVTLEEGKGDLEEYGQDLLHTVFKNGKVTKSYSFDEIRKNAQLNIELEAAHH

With `CCCc1nc(-c2ccc(Cl)cc2)nc2cc(C(=O)NCC3CC3c3ncc[nH]3)ccc12` (racemic) [Compound I-59, 2-(4-chlorophenyl)-N-{[trans-(1,2)-2-(1H-imidazol-2-yl)cyclopropyl]methyl}-4-propylquinazoline-7-carboxamide], in data set [1] (setting [3]), the inhibition at 1 µM stood at 90%. Besides, the IC50 in data set [1] lay in the range of 0.05 to 0.1 µM. Also, the viability at 1.667 µM in data set [2] was found to be 2%.
On to `CCOc1cc(-c2ccc(F)cc2)nc2cc(C(=O)NCC3CC3c3ncc[nH]3)ccc12` (single isomer, unassigned) [Compound I-50, 4-Ethoxy-2-(4-fluorophenyl)-N-{[trans-(1,2)-2-(1H-imidazol-2-yl)cyclopropyl]methyl}quinoline-7-carboxamide], for which, in data set [1] (setting [3]), the inhibition at 1 µM turned out to be 99%. In data set [1], this molecule displayed an IC50 of under 0.01 µM. Besides, the viability at 1.667 µM in data set [2] is 3%.
For `CCOc1cc(-c2ccc(F)cc2)nc2cc(C(=O)NCC3CC3c3ncc[nH]3)ccc12` (single isomer, unassigned) [Compound I-51, 4-Ethoxy-2-(4-fluorophenyl)-N-{[trans-(1,2)-2-(1H-imidazol-2-yl)cyclopropyl]methyl}quinoline-7-carboxamide], in data set [1] (setting [3]), the “Percent Inhibition” value is listed as 98%. Further, the IC50 in data set [1] lay in the range of 0.01 to 0.05 µM. For the same molecule, the “Percent Viability” value in data set [2] (human, 72 h, 1.667 µM) worked out at 4%.
`CC[C@@H](F)c1nc(-c2ccc(Cl)cc2)nc2cc(C(=O)NCCCc3ncc[nH]3)ccc12` (stereo in doubt) [Compound I-72, 2-(4-chlorophenyl)-4-[1-fluoropropyl]-N-[3-(1H-imidazol-2-yl)propyl]quinazoline-7-carboxamide]: the inhibition at 1 µM in data set [1] (setting [3]) was found to be 98%. In data set [1], this molecule displayed an IC50 of under 0.01 µM. For the same molecule, the viability at 1.667 µM in data set [2] was found to be 1%.
The like results for `CCCc1nc(-c2ccc(Cl)cc2)nc2cc(C(=O)NCCc3cncn3C)ccc12` [Compound I-1, 2-(4-chlorophenyl)-N-[2-(1-methyl-1H-imidazol-5-yl)ethyl]-4-propylquinazoline-7-carboxamide] were, in that order, over 99%, under 0.01 µM and 2%.
The corresponding values for `CCOc1cc(-c2ccc(F)cc2)nc2cc(C(=O)NCCc3cncn3C)ccc12` [Compound I-2, 4-ethoxy-2-(4-fluorophenyl)-N-[2-(1-methyl-1H-imidazol-5-yl)ethyl]quinoline-7-carboxamide] are over 99%, under 0.01 µM and 2%.
The corresponding values for `CCCc1nc(-c2ccc(Cl)cc2)nc2cc(C(=O)N[C@H]3C[C@@H](c4ncc[nH]4)C3)ccc12` [Compound I-3, 2-(4-Chlorophenyl)-N-[cis-3-(1H-imidazol-2-yl)cyclobutyl]-4-propyl-quinazoline-7-carboxamide] are 94%, 0.01 to 0.05 µM and 2%.
For `CCCc1nc(-c2ccc(Cl)cc2)nc2cc(C(=O)NCCCc3ncc[nH]3)ccc12` [Compound I-4, 2-(4-chlorophenyl)-N-[3-(1H-imidazol-2-yl)propyl]-4-propylquinazoline-7-carboxamide], the inhibition at 1 µM in data set [1] (setting [3]) stood at 99%. This molecule gave a half-maximal inhibitory concentration (IC50) in data set [1] of under 0.01 µM. Besides, the viability at 1.667 µM in data set [2] came out at 1%.
The corresponding values for `CCOc1cc(-c2ccc(F)cc2)nc2cc(C(=O)NCCCc3nnc[nH]3)ccc12` [Compound I-5, 4-ethoxy-2-(4-fluorophenyl)-N-[3-(4H-1,2,4-triazol-3-yl)propyl]quinoline-7-carboxamide] are 100%, under 0.01 µM and 1%.
As to `CCOc1cc(-c2ccc(F)cc2)nc2cc(C(=O)NCCc3cn(C)cn3)ccc12` [Compound I-6, 4-ethoxy-2-(4-fluorophenyl)-N-[2-(1-methyl-1H-imidazol-4-yl)ethyl]quinoline-7-carboxamide], in data set [1] (setting [3]), the inhibition at 1 µM was determined as 94%. Also, the half-maximal inhibitory concentration (IC50) in data set [1] lay in the range of 0.05 to 0.1 µM. Also, the viability at 1.667 µM in data set [2] is 1%.
The like results for `CCCc1nc(-c2ccc(Cl)cc2)nc2cc(C(=O)NCCCc3nnc[nH]3)ccc12` [Compound I-7, 2-(4-chlorophenyl)-4-propyl-N-[3-(4H-1,2,4-triazol-3-yl)propyl]quinazoline-7-carboxamide] were, in that order, 97%, 0.01 to 0.05 µM and 1%.
The corresponding values for `CCCc1nc(-c2ccc(Cl)cc2)nc2cc(C(=O)NCc3ccc4nccn4c3)ccc12` [Compound I-8, 2-(4-chlorophenyl)-N-(imidazo[1,2-a]pyridin-6-ylmethyl)-4-propylquinazoline-7-carboxamide] are 98%, under 0.01 µM and 1%.
As for `CCCc1nc(-c2ccc(Cl)cc2)nc2cc(C(=O)NCc3nc4ccncc4[nH]3)ccc12` [Compound I-9, 2-(4-chlorophenyl)-N-(3H-imidazo[4,5-c]pyridin-2-ylmethyl)-4-propylquinazoline-7-carboxamide], the inhibition at 1 µM in data set [1] (setting [3]) amounted to 93%. Besides, in data set [1], the half-maximal inhibitory concentration (IC50) is under 0.01 µM. Moreover, the viability at 1.667 µM in data set [2] was 1%.
The like results for `COc1nc(-c2ccc(Cl)cc2)nc2cc(C(=O)NCCCc3ncc[nH]3)ccc12` [Compound I-10, 2-(4-chlorophenyl)-N-[3-(1H-imidazol-2-yl)propyl]-4-methoxyquinazoline-7-carboxamide] were, in that order, 100%, under 0.01 µM and 1%.
Regarding `CCOc1cc(-c2cc(Cl)ccc2F)nc2cc(C(=O)NCCCc3ncc[nH]3)ccc12` [Compound I-11, 2-(5-chloro-2-fluorophenyl)-4-ethoxy-N-[3-(1H-imidazol-2-yl)propyl]quinoline-7-carboxamide], the inhibition at 1 µM in data set [1] (setting [3]) was over 99%. This molecule also showed an IC50 in data set [1] of under 0.01 µM. Moreover, in data set [2], the viability at 1.667 µM turned out to be 1%.
With `CCOc1cc(-c2cc(OC)ncc2F)nc2cc(C(=O)NCCCc3ncc[nH]3)ccc12` [Compound I-12, 4-ethoxy-2-(5-fluoro-2-methoxypyridin-4-yl)-N-[3-(1H-imidazol-2-yl)propyl]quinoline-7-carboxamide], the inhibition at 1 µM in data set [1] (setting [3]) was over 99%. Further, in data set [1], the IC50 was under 0.01 µM. For the same molecule, the viability at 1.667 µM in data set [2] was 1%.
`CCOc1cc(-c2ccc(Cl)cc2)nc2cc(C(=O)NCCCc3ncc[nH]3)ccc12` [Compound I-13, 2-(4-chlorophenyl)-4-ethoxy-N-[3-(1H-imidazol-2-yl)propyl]quinoline-7-carboxamide]: in data set [1], the IC50 was under 0.01 µM and the inhibition at 1 µM was over 99%. Further, the viability at 1.667 µM in data set [2] is 0%.

One may read the inhibition as the change of the read-out against control, counted positive when it falls. A word on the IC50: it is the concentration at which inhibition is half-maximal.

The values are drawn from patent publication US10323018B2 (Millennium Pharmaceuticals, Inc., priority 2015, dated 2019).
